This is an account of results in US4341868A, “Method and test composition for the determination of the substrate for xanthine oxidase” (Kyowa Hakko Kogyo Co., Ltd., priority 1978, dated 1982).

Counter-ions that a name gives are not always drawn. Like-named read-outs stand apart in the source and are kept apart here.

Data set [1] deals with xanthine oxidase. The experiment in a line: Substrate specificity (formed hydrogen peroxide, Method II). It is filed as biochemical, Enterobacter cloacae. As to conditions: for Relative activity: activity on xanthine defined as 100, 0.1 ml of 5 mM substrate, 0.25 U/ml enzyme, pH 7.3, 37° C.; for activity of xanthine oxidase on substrate (in words): conclusion from Table 1. As for the experimental part:
After completion of the reaction, the absorbancy of the reaction solution is measured at 500 nm. Molecular extinction coefficient of quinoneimine pigment formed in the reaction is 5.33×10^3 (Clinical Chemistry 20, 470, 1974). When a unit of enzyme activity is defined as the activity of enzyme which forms 1 μmol of hydrogen peroxide in one minute at 37° C. and at a pH of 7.3, the unit (U) of xanthine oxidase is as follows:
The same procedures as in Method II are repeated except that 0.25 U/ml xanthine oxidase and 0.1 ml of 5 mM solutions of various substrates are used, and the amount of the formed hydrogen peroxide is determined.

Data set [2] has as its system xanthine oxidase. Nature of the data set: Inhibition of xanthine oxidase (Method I). It counts as biochemical, Enterobacter cloacae. Particulars: for inhibition of xanthine oxidase (in words): conclusion from Table 2. As for the experimental part:
The reaction is carried out at 37° C. for ten minutes. […] The thus obtained value is defined as OD283. This value corresponds to the amount of uric acid formed.
Since the reaction product, uric acid has a maximum absorption at 283 nm in acidic region and the molecular extinction coefficient is 1.238×10^4 (Analytical Biochemistry 38, 65, 1970), the unit (U) of xanthine oxidase is as follows:
One unit of enzyme activity is defined as the activity of enzyme which forms 1 μmol of uric acid in one minute at 37° C. and at a pH of 7.3.
Xanthine oxidase activity is determined in the same manner as in Method I except that 0.25 U/ml xanthine oxidase solution is used and various enzyme inhibitors are added.

Data set [3] relates to xanthine oxidase. Nature of the data set: Experiment 3: electron acceptor of the present enzyme. It is filed as biochemical, Enterobacter cloacae. As for the experimental part:
0.15 ml of 10 mM xanthine aqueous solution, 1.0 ml of 100 mM tris-hydrochloride buffer (pH 7.3), 0.65 ml of water and 1 ml of various electron acceptors shown in Table 3 are mixed. The mixture and a solution of xanthine oxidase obtained in Example 1 are incubated at 37° C. and then nitrogen gas is introduced into the mixture and the enzyme solution for 3~4 minutes to remove dissolved oxygen.
Then, 0.2 ml of 0.25 U/ml xanthine oxidase is added to 2.8 ml of the reaction mixture to initiate the reaction and the absorbancy is measured every 15 seconds. The values obtained during one minutes of 30 to 90 seconds after the addition of xanthine oxidase is used as data.
When oxygen is used as an acceptor, nitrogen gas is not introduced into the mixture and the reaction product, uric acid obtained using dissolved oxygen is determined by measuring the absorbancy at 295 nm.

Data set [4] deals with xanthine oxidase. Nature of the data set: Examples 2 and 3: xanthine oxidase activity with nucleic acid compound added to the medium. It is filed as cell-based, Enterobacter cloacae KY 3066. As for the experimental part:
In this example, 40 ml of the medium (pH 7.2) containing 0.5 g/dl yeast extract, 0.5 g/dl corn steep liquor, 0.1 g/dl peptone, 0.05 g/dl KH2 PO4, 0.1 g/dl K2 HPO4, […] and is sterilized at 120° C. for 15 minutes. One loopful of the seed culture of Enterobacter cloacae KY 3066 is inoculated into the medium and culturing is carried out at 30° C. for 48 hours.
The microbial cells are recovered from the culture liquor by centrifugation and are suspended in 20 ml of the buffer. The suspension is subjected to ultrasonic disintegration.

For data set [5], the system named is xanthine oxidase derived from milk. Particulars: ferricyanide 100; cited from earlier work.
The subject of data set [6] is xanthine oxidase. As for the experimental part: The coloring solution is prepared by adding 445 U/100 ml peroxidase to 0.1 M tris-hydrochloride buffer (pH 7.3) containing 10 mmol/l 4-aminoantipyrine and 10 mmol/l phenol.
In this experiment, 40 ml of medium (pH 7.2) comprising hypoxanthine having concentrations indicated in Table 4, 0.5 g/dl yeast extract, 0.5 g/dl corn steep liquor, 0.1 g/dl peptone, 0.05 g/dl KH2 PO4, 0.1 g/dl K2 HPO4 and 0.05 g/dl MgSO4.7H2 O is poured into Sakaguchi flask and is sterilized at 120° C. for 15 minutes.
One loopful of the seed culture of Enterobacter cloacae KY 3066, FERM P 4077, NRRL B-11155 in a slant is inoculated into the medium and culturing is carried out with shaking at 30° C. for 48 hours.
After completion of the culturing, the culture liquor is subjected to centrifugation at 10,000 r.p.m for 15 minutes (hereinafter centrifugation is carried out under this condition) to obtain microbial cells. The thus obtained cells are suspended in 20 ml of 50 mM tris-hydrochloride buffer (pH 8.0) and then disrupted for ten minutes in an ultrasonic disintegration (Ultrasonic Generator KMS-250 type, made by Kubota Seisaku-sho). The resulting disrupted cell suspension is centrifuged to obtain a supernatant. Xanthine oxidase activity of the supernatant is determined according to the Determination Method II and the results are shown in Table 4 below.

In data set [7] the test system is xanthine oxidase. It is filed as biochemical, Enterobacter cloacae. The method, then: As a coloring solution, 0.1 M tris-hydrochloride buffer (pH 7.3) containing 10 mmol/l 4-aminoantipyrine, 10 mmol/l phenol and 490 U/100 ml peroxidase is prepared. […] The absorbancy of the reaction solution is measured at 500 nm.
The conditions of data set [8]: pH 7.3.
Description: Hypoxanthine is oxidized by the action of the present enzyme and the formed hydrogen peroxide is reacted with a coloring reagent.
The enzyme-containing solution is subjected to reaction at 37° C. and the absorbancy of the reaction solution colored by the formation of quinoneimine derived from hydrogen peroxide is measured at 500 nm at regular intervals.
The solution is subjected to reaction at 37° C. and the absorbancy of the reaction solution is measured at 293 nm at regular intervals.

`NC(=O)C1=CN([C@@H]2O[C@H](COP(=O)(O)OP(=O)(O)OC[C@H]3O[C@@H](n4cnc5c(N)ncnc54)[C@H](O)[C@@H]3O)[C@@H](O)[C@H]2O)C=CC1` [NADH] displayed a Relative activity in the data set on xanthine oxidase [1] of 0%.
Still for that read-out and setting: with `Nc1nc2c(ncn2[C@@H]2O[C@H](CO)[C@@H](O)[C@H]2O)c(=O)[nH]1` [Guanosine] the figure was 0%.
With `O.O.O.O.O.O.O.O=S(=O)([O-])[O-].[Fe+2]` [FeSO4.7H2 O], the “inhibition of xanthine oxidase (in words)” value (“inhibition … (in words)” below) in the data set on xanthine oxidase [2] is listed as “inhibitors of xanthine oxidase”. Further, the Inhibition rate with xanthine oxidase [2] (inhibitor 1 × 10^-4 M) came out at 92.3%; with xanthine oxidase [2] (inhibitor 1 × 10^-5 M), 0%.
In turn, `NC(=O)c1ccc[n+]([C@@H]2O[C@H](COP(=O)([O-])OP(=O)(O)OC[C@H]3O[C@@H](n4cnc5c(N)ncnc54)[C@H](OP(=O)(O)O)[C@@H]3O)[C@@H](O)[C@H]2O)c1` [NADP] displayed a Relative activity with xanthine oxidase [3] (acceptor 0.1 mM, 340 nm) of 0%.
For `Nc1nc2nc[nH]c2c(=O)[nH]1` [Guanine], in the data set with xanthine oxidase [1], the Relative activity was determined as 53.3% and the “activity of xanthine oxidase on substrate (in words)” value (from here on “activity of xanthine oxidase”) was “strong activity”. The compound also displayed a Xanthine oxidase with xanthine oxidase [4] (amount of addition 0.3 g/dl) of 0.14 U/ml.
Consider `NC(=O)c1ccc[n+]([C@@H]2O[C@H](COP(=O)([O-])OP(=O)(O)OC[C@H]3O[C@@H](n4cnc5c(N)ncnc54)[C@H](O)[C@@H]3O)[C@@H](O)[C@H]2O)c1` [NAD], for which the Relative activity in the data set with xanthine oxidase [3] (acceptor 0.1 mM, 340 nm) was 0%; in data set [5], under 1.3.
In the case of `O=[N+]([O-])[O-].[Ag+]` [AgNO3], in the data set with xanthine oxidase [2], the “inhibition … (in words)” value is listed as “inhibitors of xanthine oxidase”. Moreover, the Inhibition rate with xanthine oxidase [2] (inhibitor 1 × 10^-4 M) is 97.8%; in the data set with xanthine oxidase [2] (inhibitor 1 × 10^-5 M) it was 98.2%; in the data set on xanthine oxidase [2] (inhibitor 1 × 10^-6 M), 54.8%; in the data set with xanthine oxidase [2] (inhibitor 1 × 10^-7 M), 0%.
Regarding `O.O.[Cl][Cu][Cl]` [CuCl2.2H2 O], in the data set on xanthine oxidase [2], the “inhibition … (in words)” value was “inhibitors of xanthine oxidase”. The Inhibition rate is given as 96.3% with xanthine oxidase [2] (inhibitor 1 × 10^-4 M), 79.6% in the data set with xanthine oxidase [2] (inhibitor 1 × 10^-5 M), 12.9% with xanthine oxidase [2] (inhibitor 1 × 10^-6 M) and 0% in the data set on xanthine oxidase [2] (inhibitor 1 × 10^-7 M).
In the data set with xanthine oxidase [1], `O=c1[nH]c(=O)c2[nH]c(=O)[nH]c2[nH]1` [Uric acid] gave a Relative activity of 0%.
For `OC[C@H]1O[C@@H](n2cnc3c(O)ncnc32)[C@H](O)[C@@H]1O` [Inosine], the Relative activity in the data set on xanthine oxidase [1] came to 0%. In addition, the Xanthine oxidase in the data set on xanthine oxidase [4] (amount of addition 0.54 g/dl) is given as 0.20 U/ml.
Consider `O=O` [Oxygen], for which the “acceptor of the present enzyme (in words)” value with xanthine oxidase [3] is “best acceptor”. The Relative activity in the data set on xanthine oxidase [3] (dissolved oxygen, 295 nm) is reported as 100%; in data set [5], 83.
Regarding `Nc1nc2c(ncn2[C@@H]2O[C@H](COP(=O)(O)O)[C@@H](O)[C@H]2O)c(=O)[nH]1` [Disodium 2,5'-guaninate], the Xanthine oxidase in the data set with xanthine oxidase [4] (amount of addition 0.81 g/dl) was determined as 0.30 U/ml.
In the case of `O=C([O-])c1cc[c]([Hg][Cl])cc1.[Na+]` [PCMB, Sodium salt of pchloromercuribenzoic acid], in the data set with xanthine oxidase [2], the “inhibition … (in words)” value is recorded as “inhibitors of xanthine oxidase”. In addition, the values for the Inhibition rate in the data set on xanthine oxidase [2] (inhibitor 1 × 10^-4 M), with xanthine oxidase [2] (inhibitor 1 × 10^-5 M) and with xanthine oxidase [2] (inhibitor 1 × 10^-6 M) were 76.6%, 34.7% and 0%, respectively.
`O=c1[nH]c(=O)c2ncn([C@@H]3O[C@H](CO)[C@@H](O)[C@H]3O)c2[nH]1` [Xanthosine] displayed a Relative activity in the data set on xanthine oxidase [1] of 0%. This compound also yielded a Xanthine oxidase in the data set with xanthine oxidase [4] (amount of addition 0.57 g/dl) of 0.20 U/ml.
As to `[Cl][Cu]` [CuCl], in the data set on xanthine oxidase [2], the “inhibition … (in words)” value is given as “inhibitors of xanthine oxidase”. Also, the Inhibition rate turned out to be 90.5% in the data set with xanthine oxidase [2] (inhibitor 1 × 10^-4 M), 53.5% in the data set with xanthine oxidase [2] (inhibitor 1 × 10^-5 M) and 2.2% in the data set with xanthine oxidase [2] (inhibitor 1 × 10^-6 M).
For `Nc1ncnc2nc[nH]c12` [Adenine], the Relative activity in the data set with xanthine oxidase [1] is 0%.
For the compound `Oc1ncc2[nH]cnc2n1` [2-Hydroxypurine], in the data set on xanthine oxidase [1], the Relative activity is given as 88.5% and the “activity of xanthine oxidase” value was “strong activity”.
Turning to `Sc1ncnc2nc[nH]c12` [6-mercaptopurine], the Relative activity with xanthine oxidase [1] worked out at 4.4%.
On the same count and under the same terms, with `Cn1cnc2c1c(=O)[nH]c(=O)n2C` [Theobromine] the figure was 0%.
In turn, `O=c1[nH]cnc2nc[nH]c12` [Hypoxanthine] showed a Relative activity with xanthine oxidase [1] of 92.3%. In addition, the “activity of xanthine oxidase” value in the data set with xanthine oxidase [1] is “strong activity”. Further, the Xanthine oxidase activity in the data set on xanthine oxidase [6] (hypoxanthine 0.1 g/dl) was 20.0 U/dl; in the data set with xanthine oxidase [6] (hypoxanthine 0.2 g/dl) it was 31.2 U/dl; in the data set on xanthine oxidase [6] (hypoxanthine 0.3 g/dl), 47.3 U/dl; in the data set with xanthine oxidase [6] (hypoxanthine 0.5 g/dl), 48.4 U/dl; with xanthine oxidase [6] (hypoxanthine 1.0 g/dl), 55.2 U/dl; with xanthine oxidase [6] (hypoxanthine 3.0 g/dl), 49.0 U/dl. Moreover, the “[B]/[A] (formed hydrogen peroxide / substrate)” value in the data set with xanthine oxidase [7] came to 1.80. For the same compound, the “Amount of formed hydrogen peroxide [B]” value with xanthine oxidase [7] (pH 7.3) came to 0.27 µmol.
For the compound `O=C1O[C@H]([C@@H](O)CO)C(O)=C1O` [L-ascorbic acid], in the data set with xanthine oxidase [2], the “inhibition … (in words)” value is listed as “inhibitors of xanthine oxidase”. The Inhibition rate with xanthine oxidase [2] (inhibitor 1 × 10^-3 M) was 88.9%; in the data set on xanthine oxidase [2] (inhibitor 1 × 10^-4 M), 82.7%; in the data set with xanthine oxidase [2] (inhibitor 1 × 10^-5 M), 61.7%; in the data set with xanthine oxidase [2] (inhibitor 1 × 10^-6 M) it was 0%.
Regarding `O=c1[nH]c(=O)c2[nH]cnc2[nH]1` [Xanthine], in the data set on xanthine oxidase [1], the Relative activity worked out at 100% and the “activity of xanthine oxidase” value is recorded as “strong activity”. The “Amount of formed hydrogen peroxide [B]” value in the data set with xanthine oxidase [7] (substrate 0.15 μmol, 0.93 U xanthine oxidase, pH 7.3, 37° C., 20 minutes) turned out to be 0.14 µmol. For the same compound, the “[B]/[A] (formed hydrogen peroxide / substrate)” value in the data set with xanthine oxidase [7] (substrate 0.15 μmol, 37° C., 20 minutes) turned out to be 0.93. In the data set with xanthine oxidase [4] (amount of addition 0.3 g/dl), this compound came in with a Xanthine oxidase of 0.13 U/ml.
Consider “xanthine oxidase derived from milk: xanthine oxidase derived from milk (product of Boehringer Mannheim Co.)”, for which the “stability of pigment (in words)” value in data set [8] is “then decrease in spite of the continuous formation of uric acid”.
Take `Nc1ncnc2c1ncn2[C@@H]1O[C@H](CO)[C@@H](O)[C@H]1O` [Adenosine]: the Relative activity with xanthine oxidase [1] is on record as 2.5%.
The same measure, in the same setting: next, `Cn1c(=O)c2[nH]cnc2n(C)c1=O` [Theophylline]: 0%.
For the compound `c1ncc2[nH]cnc2n1` [Purine], in the data set on xanthine oxidase [1], the Relative activity was 23.3% and the “activity of xanthine oxidase” value is “strong activity”.
Consider Cytochrome C: electron acceptor, for which the Relative activity in the data set with xanthine oxidase [3] (acceptor 0.1 mM, 550 nm) came to 0%.
For the compound `O=C1C(Cl)=CC(=Nc2ccc(O)cc2)C=C1Cl` [DCPIP, 2,6-sodium salt of dichlorphenol indophenol], the Relative activity was 9.2% in the data set on xanthine oxidase [3] (acceptor 0.04 mM, 600 nm) and 35 in data set [5].
